In patent US9598463B2, “Mucin hypersecretion inhibitors and methods of use” (BIOMARCK PHARMACEUTICALS, LTD., priority 2005, dated 2017):
Where two headings read alike, the source gives them in different places. Marks after values point to notes of the source that are not given here.

Experiments:
[1] = system: methacholine-induced mucin hypersecretion; assay: Duration of action of test peptides in a murine model of asthma; type: in vivo; details: Balb/C mice
Description: Experiments were designed to test whether or not the MANS peptide and other test peptides related thereto inhibit hypersecretion of mucin in murine airway in vivo. The ovalbumin-sensitized mouse model of allergic inflammation and asthma used in these studies was as described by Singer et al. (2004), supra. As a negative control, a control peptide containing an N-terminal myristoyl group and the same amino acids as MANS peptide but arranged in random order (i.e., the random N-terminal sequence, RNS, myristoyl-peptide 232) was tested alongside the proposed active peptides. BP2 mice, aged 6-8 wks, were immunized subcutaneously twice at weekly intervals with 1 μg of ovalbumin. After 14 days of sensitization, the animals were exposed to aerosolized ovalbumin, which causes a pronounced goblet cell hyperplasia after 72 hours. At the 72 hr time point, the secretagogue, methacholine ([…]) was delivered using a Buxco system nebulizer providing a fine aerosol for 90 seconds. Fifteen min prior to the secretagogue challenge, 50 μL of the test peptide, at 3 different concentrations (10 μM, 100 μM, or 140 μM), was administered by intratracheal route. The RNS peptide was tested at the highest dose level only (50 μL of 140 μM solution). […] Each experiment was carried out in 6 mice per point, and each set of experiments was repeated 3 times. To test strain-to-strain variations, the above experiment was repeated in Balb/C mice under similar protocol. Both stimulated and unstimulated mucin secretion, in mice treated with […] sodium acetate (data not shown), were identical to saline control. Following the methacholine challenge, the animals were sacrificed and bronchoalveolar lavage (BAL) performed on 6 animals per group for analysis of secreted mucin.
Mice were sacrificed by cervical dislocation, followed by rapid exposure of the trachea and insertion of a cannula through a small incision. Bronchoalveolar lavage (BAL) fluid was collected with 0.5 ml followed by 3×1 ml PBS containing PMSF (5 mM), EDTA (5 mM), and DTT (5 mM). BAL fluid was separated into cell-free and cell fractions via brief centrifugation prior to any analyses being performed. The cell-free supernatants were analyzed for the presence of mucin via an ELISA method using anti-mucin antibodies shown to react with mouse mucin. Specifically, a mouse anti-MUC5AC antibody that recognizes the carbohydrate portion of secreted mucin was used in these assays. Data generated from each BAL sample were normalized to total protein as determined by Bradford assay. Mucin content was expressed as the value obtained with the anti-mucin antibody minus that obtained with the non-immune control antibody. All ELISA data were statistically examined using a one-way ANOVA.
Experiments were designed to determine the duration of action of test peptides in a murine model of asthma. As described in Method 1A, Balb/C mice were immunized with ovalbumin. After 14 days, the animals were challenged with aerosolized ovalbumin. After 72 hours the secretagogue, methacholine was delivered by aerosolization. The test peptides ([…] of 100 µM solution) were administered by intratracheal route 30 min, 60 min, or 120 min prior to methacholine challenge. The animals were sacrificed and BAL performed for analysis of secreted mucin The results of this experiment are given in Table VI.

[2] = Stability of test peptides in human CF mucus (LC/MS/MS, first order half-life); type: in vitro ADME; details: cerebrospinal or other body fluid, pH 7, human CF mucus
Experimental: Various test peptides in human plasma, human BALF, and CF patient mucus were analyzed to determine the susceptability of the test peptide to proteolysis in the biological fluids. […] The samples were analyzed either on the same day as received or stored at −20° C. and analyzed within the following two days.
The frozen mucus (sputum) from a CF patient was thawed and mixed with 2 volumes of 75 mM sodium acetate buffer, pH 7 with the help of a glass tissue grinder, centrifuged at 10,000×g for 10 min at 4-8° C. The pellet was re-suspended in 1 volume of the acetate buffer and centrifuged. The two supernatants were combined and used as follows. The supernatant (450 μL) was spiked with 50 μL, of 0.5 mg/mL solution of the peptide in 75 mM sodium acetate buffer at pH 7.0 and processed and analyzed as described above.
All samples were analyzed using LC/MS/MS (MDS/SCIEX, API 4000 Model). Chromatography was performed using a Phenomenex Luna C18 column, while mass spectrometry was performed using positive ion electrospray ionization.
Calibration standards were analyzed by LCMS at concentrations of 0.100 μg/mL, 1.00 μg/mL, 10.0 μg/mL, and 100 μg/mL for each peptide, with the exception of the calibration standards for peptides myr-PEPTIDE 106, PEPTIDE 106, PEPTIDE 106-NH2, PEPTIDE 106, and cyclic peptide, cyc-PEPTIDE 106, in human mucus, which were analyzed at concentrations of 0.100 μg/mL, 1.00 μg/mL, 10.0 μg/mL, and 75 μg/mL. Standards were prepared in 1% human BALF, plasma, or mucus in 50/50 water/acetonitrile mixture containing 0.2% formic acid. The instrument response values for each set of standards were fit using a 1/(concentration)^2 linear least-squares line. Sample concentrations were calculated using the slope and intercept of this line. Concentrations outside of the calibration range were determined by extrapolating the calibration curve.
Watson fits the log transformed data with a least-squares line to determine parameters such as Cmax (maximum concentration), intercept, rate constant, slope, and T1/2 (half-life). The resulting kinetic parameters were based on the linear fit, not the actual concentration values.
Time-zero calibration standards in solution were not included as part of the kinetic profiles.

[3] = system: methacholine-induced mucin hypersecretion; assay: Methacholine-induced mucin hypersecretion in ovalbumin-sensitized mouse model of asthma, BAL mucin ELISA (Balb/C mice); type: in vivo; details: for Mucin Secretion % control: Table II, peptides at 100 μM, 50 μL intratracheal 15 min before methacholine; for Mucin Secretion % of control: Table IV
In short: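 BP2 or Balb/C mice immunized s.c. twice weekly with 1 μg ovalbumin, aerosol ovalbumin challenge after 14 days, then aerosolized methacholine 72 h later. Anti-MUC5AC ELISA on cell-free BAL, minus non-immune antibody signal, normalized to Bradford protein; 6 mice per group.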

[4] = peptide intratracheal 30 min prior to methacholine challenge
[5] = peptide intratracheal 60 min prior to methacholine challenge
[6] = peptide intratracheal 120 min prior to methacholine challenge
[7] = 1st experiment, read-out: Mucus t1/2 (1st exp.) (converted)
[8] = 2nd experiment, read-out: Mucus t1/2 (2nd exp.) (converted)

Substance	Duration of action, mucin secretion (% of Control) [1, 4]	Duration of action, mucin secretion (% of Control) [1, 5]	Duration of action, mucin secretion (% of Control) [1, 6]	half-life [2, 7] [min]	half-life [2, 8] [min]	Mucin Secretion % control [3] [% control]	Mucin Secretion % of control ([3]; peptide 10 μM)	Mucin Secretion % of control ([3]; peptide 100 μM)
Ac-GAQFSKTAAK-OH [Ac-peptide 106]	21 % of Control	72 % of Control	70 % of Control	33	28.2	21.5		
H-GAQFSKTAAK-OH [peptide 106, GAQFSKTAAK]	23 % of Control	48 % of Control	57 % of Control	13.8	22.2	33.8	64* % of control	40** % of control
